From ChEMBL document CHEMBL5465560, “Selectivity Literature for EUbOPEN Chemogenomic Library” (2024)

Legend:
[1] = system: Tyrosine-protein kinase ABL1 (Homo sapiens), P00519 [H396P]; assay: Selectivity interaction (KinomeScan (DiscoverX)) EUB0001049a ABL1; conditions: at 1 µM
[2] = molecular target: 3',5'-cyclic-AMP phosphodiesterase 4D (Homo sapiens) (UniProt Q08499); assay: Selectivity interaction (Safety Panel 44tm (Eurofins)) EUB0000162b PDE4D; conditions: at 10 µM
[3] = molecular target: Mitogen-activated protein kinase 10 (Homo sapiens, UniProt P53779); assay: Selectivity interaction (KinomeScan (DiscoverX)) EUB0000229b MAPK10; conditions: at 10 µM
[4] = molecular target: T1, Serine/threonine-protein kinase LATS2 (Homo sapiens) (UniProt Q9NRM7); assay: Selectivity interaction (KinomeScan (DiscoverX)) EUB0001079a LATS2; conditions: at 1 µM
T1 sequence (whole entry): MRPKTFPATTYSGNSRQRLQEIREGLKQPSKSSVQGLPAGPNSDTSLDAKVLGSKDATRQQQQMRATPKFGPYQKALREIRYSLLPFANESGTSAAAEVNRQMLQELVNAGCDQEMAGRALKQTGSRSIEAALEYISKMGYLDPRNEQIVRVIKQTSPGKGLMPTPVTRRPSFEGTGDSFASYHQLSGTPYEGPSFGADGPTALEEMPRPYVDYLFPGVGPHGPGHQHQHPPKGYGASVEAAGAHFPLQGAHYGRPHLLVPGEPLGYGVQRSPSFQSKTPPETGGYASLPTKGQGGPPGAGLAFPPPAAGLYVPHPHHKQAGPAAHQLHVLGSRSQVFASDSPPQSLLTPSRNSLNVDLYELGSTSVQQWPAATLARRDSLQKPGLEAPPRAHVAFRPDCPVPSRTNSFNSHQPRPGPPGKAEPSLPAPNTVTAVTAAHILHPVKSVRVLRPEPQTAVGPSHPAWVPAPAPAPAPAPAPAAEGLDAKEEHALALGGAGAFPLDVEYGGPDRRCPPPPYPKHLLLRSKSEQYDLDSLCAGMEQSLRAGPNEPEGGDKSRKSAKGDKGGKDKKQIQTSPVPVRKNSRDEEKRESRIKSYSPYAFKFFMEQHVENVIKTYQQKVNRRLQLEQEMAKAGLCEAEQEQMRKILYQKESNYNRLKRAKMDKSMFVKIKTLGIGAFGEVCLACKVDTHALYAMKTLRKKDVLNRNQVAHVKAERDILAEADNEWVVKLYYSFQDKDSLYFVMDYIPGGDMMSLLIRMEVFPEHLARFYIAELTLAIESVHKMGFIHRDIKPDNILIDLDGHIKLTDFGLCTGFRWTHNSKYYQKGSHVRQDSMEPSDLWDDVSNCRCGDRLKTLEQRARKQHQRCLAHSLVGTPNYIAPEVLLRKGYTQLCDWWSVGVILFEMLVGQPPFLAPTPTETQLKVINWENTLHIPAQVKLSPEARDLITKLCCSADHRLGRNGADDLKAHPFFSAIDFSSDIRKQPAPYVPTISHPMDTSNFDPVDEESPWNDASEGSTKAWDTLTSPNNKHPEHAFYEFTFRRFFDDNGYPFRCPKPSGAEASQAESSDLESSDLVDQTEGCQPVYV

[5] = molecular target: Serine/threonine-protein kinase MARK2 (Homo sapiens) (UniProt Q7KZI7); assay: Selectivity interaction (Kinase panel (KiNativ target engagement assay in Jurkat cells)) EUB0001635a MARK2; format: cell-based; conditions: Selectivity number of off-targets 0.0, Selectivity number of targets 233.0, Source Knowledge https://www.sciencedirect.com/science/article/pii/S2451945619300674?via%3Dihub, at 1 µM
[6] = molecular target: Ribosomal protein S6 kinase alpha-1 (Homo sapiens, UniProt Q15418); assay: Selectivity interaction (ActivX KiNativ screen (kinase selectivity in THP-1 cell lysates)) EUB0000639a RPS6KA1; format: subcellular; conditions: lysate, at 0.04 µM
[7] = molecular target: Ribosomal protein S6 kinase alpha-2 (Homo sapiens) (UniProt Q15349); assay: Selectivity interaction (KinomeScan (DiscoverX)) EUB0000092b RPS6KA2; conditions: at 10 µM
[8] = molecular target: Serine/threonine-protein kinase MRCK alpha (Homo sapiens) (UniProt Q5VT25); assay: Selectivity interaction (KinomeScan (DiscoverX)) EUB0000655a CDC42BPA; conditions: at 10 µM
[9] = molecular target: 5'-AMP-activated protein kinase catalytic subunit alpha-2 (Homo sapiens) (UniProt P54646); assay: Selectivity interaction (KinomeScan (DiscoverX)) EUB0000607a PRKAA2; conditions: at 10 µM
[10] = molecular target: Vascular endothelial growth factor receptor 3 (Homo sapiens, UniProt P35916); assay: Selectivity interaction (SelectScreen profiling (Invitrogen)) EUB0000607a FLT4; conditions: at 2 µM
Sequence of Vascular endothelial growth factor receptor 3 (P35916 whole entry): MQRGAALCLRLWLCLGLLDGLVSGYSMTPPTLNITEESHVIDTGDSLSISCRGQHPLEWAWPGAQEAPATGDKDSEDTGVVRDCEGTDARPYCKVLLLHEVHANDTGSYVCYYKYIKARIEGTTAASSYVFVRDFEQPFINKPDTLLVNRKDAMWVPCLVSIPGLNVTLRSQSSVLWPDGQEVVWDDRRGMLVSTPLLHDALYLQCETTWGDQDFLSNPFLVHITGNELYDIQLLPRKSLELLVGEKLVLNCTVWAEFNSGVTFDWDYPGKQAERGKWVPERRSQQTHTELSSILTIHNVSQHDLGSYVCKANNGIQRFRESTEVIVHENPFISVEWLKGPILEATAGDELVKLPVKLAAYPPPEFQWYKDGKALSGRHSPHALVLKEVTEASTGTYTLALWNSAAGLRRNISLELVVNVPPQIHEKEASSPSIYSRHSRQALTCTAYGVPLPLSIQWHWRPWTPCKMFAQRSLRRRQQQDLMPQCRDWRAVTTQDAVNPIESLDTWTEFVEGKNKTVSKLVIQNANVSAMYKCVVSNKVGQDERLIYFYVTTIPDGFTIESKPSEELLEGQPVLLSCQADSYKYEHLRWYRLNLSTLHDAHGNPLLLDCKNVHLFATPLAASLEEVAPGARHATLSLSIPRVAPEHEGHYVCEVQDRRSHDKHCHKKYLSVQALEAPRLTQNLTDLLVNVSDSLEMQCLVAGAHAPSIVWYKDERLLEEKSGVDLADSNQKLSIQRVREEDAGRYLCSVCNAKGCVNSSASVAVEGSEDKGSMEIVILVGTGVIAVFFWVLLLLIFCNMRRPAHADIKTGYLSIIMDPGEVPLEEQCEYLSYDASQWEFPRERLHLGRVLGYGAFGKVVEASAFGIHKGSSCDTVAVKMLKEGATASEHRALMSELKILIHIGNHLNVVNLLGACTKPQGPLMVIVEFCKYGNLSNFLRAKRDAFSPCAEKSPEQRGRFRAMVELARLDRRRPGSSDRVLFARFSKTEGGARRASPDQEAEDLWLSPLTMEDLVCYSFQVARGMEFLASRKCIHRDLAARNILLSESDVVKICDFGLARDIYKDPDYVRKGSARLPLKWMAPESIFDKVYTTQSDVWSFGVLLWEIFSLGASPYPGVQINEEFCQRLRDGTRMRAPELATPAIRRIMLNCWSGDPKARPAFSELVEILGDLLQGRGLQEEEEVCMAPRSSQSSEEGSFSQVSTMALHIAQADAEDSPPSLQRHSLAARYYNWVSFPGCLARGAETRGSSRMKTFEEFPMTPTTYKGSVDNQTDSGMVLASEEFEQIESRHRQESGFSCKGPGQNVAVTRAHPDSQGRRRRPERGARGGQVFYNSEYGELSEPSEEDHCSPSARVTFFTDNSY

Sequence of Serine/threonine-protein kinase MRCK alpha (Homo sapiens) (Q5VT25 whole entry): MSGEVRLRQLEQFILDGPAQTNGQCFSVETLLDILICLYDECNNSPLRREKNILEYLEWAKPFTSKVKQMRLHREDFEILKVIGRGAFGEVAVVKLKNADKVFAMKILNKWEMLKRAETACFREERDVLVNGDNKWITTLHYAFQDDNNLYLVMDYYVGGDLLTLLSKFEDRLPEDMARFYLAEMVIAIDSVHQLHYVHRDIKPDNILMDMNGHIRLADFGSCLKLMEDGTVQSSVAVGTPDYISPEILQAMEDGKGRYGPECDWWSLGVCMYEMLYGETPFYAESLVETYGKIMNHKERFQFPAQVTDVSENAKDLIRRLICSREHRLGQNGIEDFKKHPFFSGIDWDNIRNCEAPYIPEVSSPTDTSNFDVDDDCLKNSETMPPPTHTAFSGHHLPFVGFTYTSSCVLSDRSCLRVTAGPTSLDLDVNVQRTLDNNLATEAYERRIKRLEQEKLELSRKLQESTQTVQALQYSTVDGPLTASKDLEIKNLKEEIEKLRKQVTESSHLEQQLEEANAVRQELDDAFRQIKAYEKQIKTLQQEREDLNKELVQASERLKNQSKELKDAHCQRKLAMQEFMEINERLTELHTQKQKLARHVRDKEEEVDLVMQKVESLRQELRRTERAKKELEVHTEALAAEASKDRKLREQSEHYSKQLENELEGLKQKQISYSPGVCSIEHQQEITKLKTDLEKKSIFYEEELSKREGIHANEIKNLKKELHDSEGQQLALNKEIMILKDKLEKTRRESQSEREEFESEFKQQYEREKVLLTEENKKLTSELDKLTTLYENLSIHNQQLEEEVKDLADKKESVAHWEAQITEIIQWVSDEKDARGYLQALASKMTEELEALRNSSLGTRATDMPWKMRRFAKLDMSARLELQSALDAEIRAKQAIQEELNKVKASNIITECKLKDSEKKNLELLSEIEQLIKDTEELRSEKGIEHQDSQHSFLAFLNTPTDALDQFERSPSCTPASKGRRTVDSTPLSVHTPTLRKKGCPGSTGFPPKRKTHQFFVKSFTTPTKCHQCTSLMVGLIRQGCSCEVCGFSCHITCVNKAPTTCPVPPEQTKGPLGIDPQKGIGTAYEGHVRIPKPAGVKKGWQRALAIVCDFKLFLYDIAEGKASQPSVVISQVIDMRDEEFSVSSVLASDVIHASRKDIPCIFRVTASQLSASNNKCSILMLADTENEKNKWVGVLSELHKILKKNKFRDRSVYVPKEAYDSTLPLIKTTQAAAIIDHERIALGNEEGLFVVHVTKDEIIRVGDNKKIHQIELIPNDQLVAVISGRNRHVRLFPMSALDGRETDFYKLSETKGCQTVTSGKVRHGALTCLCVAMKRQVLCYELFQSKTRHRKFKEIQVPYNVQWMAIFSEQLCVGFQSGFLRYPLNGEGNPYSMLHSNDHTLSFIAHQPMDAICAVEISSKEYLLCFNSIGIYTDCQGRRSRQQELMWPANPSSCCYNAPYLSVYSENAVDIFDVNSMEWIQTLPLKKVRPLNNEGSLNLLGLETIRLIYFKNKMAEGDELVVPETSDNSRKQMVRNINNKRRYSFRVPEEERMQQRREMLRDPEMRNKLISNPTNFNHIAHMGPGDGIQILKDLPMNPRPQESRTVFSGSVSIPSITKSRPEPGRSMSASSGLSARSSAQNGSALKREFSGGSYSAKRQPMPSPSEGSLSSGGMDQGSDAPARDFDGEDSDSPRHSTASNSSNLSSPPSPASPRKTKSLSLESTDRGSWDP
Sequence of Ribosomal protein S6 kinase alpha-2 (Homo sapiens) (Q15349 whole entry): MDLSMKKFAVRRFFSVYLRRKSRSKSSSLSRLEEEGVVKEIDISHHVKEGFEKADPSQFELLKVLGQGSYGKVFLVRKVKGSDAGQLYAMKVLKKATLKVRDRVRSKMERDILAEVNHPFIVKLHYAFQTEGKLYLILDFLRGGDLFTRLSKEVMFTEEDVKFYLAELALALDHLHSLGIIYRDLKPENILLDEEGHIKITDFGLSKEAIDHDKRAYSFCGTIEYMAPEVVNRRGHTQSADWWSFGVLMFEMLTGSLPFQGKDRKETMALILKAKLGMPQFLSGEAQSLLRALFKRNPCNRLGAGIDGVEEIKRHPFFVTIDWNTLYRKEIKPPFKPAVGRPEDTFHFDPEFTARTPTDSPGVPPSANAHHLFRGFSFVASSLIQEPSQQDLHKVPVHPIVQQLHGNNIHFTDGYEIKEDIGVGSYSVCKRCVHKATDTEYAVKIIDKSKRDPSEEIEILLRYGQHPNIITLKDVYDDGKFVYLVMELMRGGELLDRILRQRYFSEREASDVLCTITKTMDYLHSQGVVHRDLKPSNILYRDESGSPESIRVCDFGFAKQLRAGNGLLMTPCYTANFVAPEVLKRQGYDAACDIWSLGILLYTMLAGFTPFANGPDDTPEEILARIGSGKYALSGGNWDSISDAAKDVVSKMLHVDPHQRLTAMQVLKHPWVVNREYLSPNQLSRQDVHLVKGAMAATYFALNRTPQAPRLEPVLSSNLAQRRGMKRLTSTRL
Sequence of Ribosomal protein S6 kinase alpha-1 (Q15418 whole entry): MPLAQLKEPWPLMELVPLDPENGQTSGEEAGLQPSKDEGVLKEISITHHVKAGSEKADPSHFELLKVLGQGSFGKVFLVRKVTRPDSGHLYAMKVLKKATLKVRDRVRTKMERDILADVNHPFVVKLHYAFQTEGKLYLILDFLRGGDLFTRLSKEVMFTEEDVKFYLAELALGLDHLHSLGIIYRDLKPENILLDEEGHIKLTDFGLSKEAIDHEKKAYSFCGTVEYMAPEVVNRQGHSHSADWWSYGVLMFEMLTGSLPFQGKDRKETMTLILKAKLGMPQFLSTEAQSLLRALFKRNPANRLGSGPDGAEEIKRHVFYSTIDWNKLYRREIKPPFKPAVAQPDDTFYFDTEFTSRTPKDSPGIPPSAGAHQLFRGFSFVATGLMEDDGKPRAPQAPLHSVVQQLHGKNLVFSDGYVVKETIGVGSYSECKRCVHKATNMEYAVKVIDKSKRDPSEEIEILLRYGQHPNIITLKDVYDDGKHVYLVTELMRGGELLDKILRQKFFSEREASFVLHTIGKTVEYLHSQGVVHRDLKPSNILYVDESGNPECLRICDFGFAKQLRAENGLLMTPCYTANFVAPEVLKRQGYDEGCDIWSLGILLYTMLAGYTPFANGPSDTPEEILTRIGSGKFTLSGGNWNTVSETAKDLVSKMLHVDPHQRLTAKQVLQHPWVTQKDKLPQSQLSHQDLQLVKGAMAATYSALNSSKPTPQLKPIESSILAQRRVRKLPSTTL
Sequence of 5'-AMP-activated protein kinase catalytic subunit alpha-2 (Homo sapiens) (P54646 whole entry, looked up): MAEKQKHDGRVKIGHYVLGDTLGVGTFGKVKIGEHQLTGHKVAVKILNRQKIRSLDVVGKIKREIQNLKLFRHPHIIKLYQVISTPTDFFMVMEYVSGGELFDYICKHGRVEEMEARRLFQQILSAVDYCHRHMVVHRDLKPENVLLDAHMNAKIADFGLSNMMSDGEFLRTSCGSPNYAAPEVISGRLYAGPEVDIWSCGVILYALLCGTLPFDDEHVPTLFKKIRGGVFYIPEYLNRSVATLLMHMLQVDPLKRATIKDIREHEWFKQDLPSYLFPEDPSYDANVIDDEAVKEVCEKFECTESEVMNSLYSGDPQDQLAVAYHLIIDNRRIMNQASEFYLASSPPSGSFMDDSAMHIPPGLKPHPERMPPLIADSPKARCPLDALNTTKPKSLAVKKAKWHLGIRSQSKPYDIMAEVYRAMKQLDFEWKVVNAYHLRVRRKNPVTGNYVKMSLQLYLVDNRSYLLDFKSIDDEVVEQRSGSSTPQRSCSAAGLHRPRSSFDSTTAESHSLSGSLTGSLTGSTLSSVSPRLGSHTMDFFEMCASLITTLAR

SMILES: COc1cc(Nc2nc(C)cc(-c3cnn4nc(OC)ccc34)n2)cc(C(F)(F)F)c1
- % of control [1]: 73%

SMILES: CN(C)C(=O)Cn1cc(-c2ccc(-c3cncc4ccccc34)cc2)cn1
- % of control [2]: 54%

SMILES: COc1cc(N(C)c2ccnc3ccc(C(F)(F)F)cc23)cc(OC)c1OC
- % binding [3]: 88%

SMILES: Nc1cnc(N2CCc3cc(S(=O)(=O)Nc4c(F)cc(Cl)cc4F)cc(N4CCCC4=O)c32)nc1 [TP-020n]
- % of control [4]: 100%

SMILES: C=CC(=O)Nc1ccc(C(=O)Nc2[nH]nc3c2CN(C(=O)N[C@H](CN(C)C)c2ccccc2)C3(C)C)cc1
- % of engagement [5]: -1.9%

SMILES: CC[C@@H]1[C@H](F)C(=O)N[C@@H]1COc1nccc2cc(C(N)=O)c(OC)cc12 [ZIMLOVISERTIB]
- % of inhibition [6]: -6.2%

SMILES: CCC(=O)N1CCN(c2ccc(-n3c(=O)ccc4cnc5ccc(-c6cnc7ccccc7c6)cc5c43)cc2C(F)(F)F)CC1
- % of control [7]: 85%

SMILES: CN(C)CCOc1ccc(-c2nc(-c3ccncc3)c(-c3ccc4c(c3)CC/C4=N\O)[nH]2)cc1
- % of control [8]: 78%

SMILES: CNC(=O)Nc1ccc(-c2nc(N3CC4CCC(C3)O4)c3cnn(C4CCC5(CC4)OCCO5)c3n2)cc1
- % of control [9]: 93%
- % of inhibition [10]: 4%
